Reference: patent US8901315B2, “Thienopyrazole derivative having PDE7 inhibitory activity” (Daiichi Sankyo Company, Limited, priority 2004, dated 2014)

Legend:
[1] = biological target: PDE 7 (phosphodiesterase VII) (Homo sapiens (Human), UniProt Q13946); assay: PDE 7 inhibiting effect (3H-cAMP hydrolysis, PDE 7 active fraction from MOLT-4 cells); assay type: biochemical; details: PDE 7 fraction from MOLT-4 cells, 0.064 μM cAMP, 10 μM rolipram, 2 hours at 25° C.; read-out: PDE7 IC50
Procedure: Methods for Evaluating the PDE 7 Inhibiting Effect
The PDE 7 (phosphodiesterase VII) inhibiting effect of the compounds of the present invention was performed by the following method, which was modified assay method described in Biochemical. Pharmacol. 48(6), 1219-1223 (1994). • (1) The active fraction of PDE 7 (phosphodiesterase VII) was obtained. That is, MOLT-4 (obtainable from ATCC as ATCC No. CRL-1582), which was cell line of human acute lymphoblastic lymphoma T cells, was incubated in RPMI1640 culture medium containing 10% fetal bovine serum to obtain 5×10^8 MOLT-4 cells. The cells were collected by centrifugation and suspended with 10 mL of buffer solution A [25 mM of tris-HCl, 5 mM of 2-mercaptoethanol, 2 mM of benzamidine, 2 mM of EDTA, 0.1 mM of 4-(2-aminoethyl)benzenesulfonyl hydrochloride; pH 7.5], then homogenized by Polytron® homogenizer. The homogenate were centrifuged under 25,000×G for 10 minutes at 4° C. The supernatant was separated and thus obtained supernatant was further centrifuged under 100,000×G for 60 minutes at 4° C., and then filtrated with 0.2 μm filter to obtain the soluble fraction. • (2) The obtained soluble fraction was filled in equilibrium HiTrap Q column (5 mL×2) with buffer solution A, and phosphodiesterase fractions were eluted by 300 mL of buffer solution A with linear gradient from 0 to 0.8 M NaCl concentration. 5 mL each of 60 eluents were collected, and each eluents were examined for cyclic AMP metabolic activities of phosphodiesterase. […] After the reaction, suspension of Sephadex®-QAE in 10 mM of HEPES-Na (pH 7.0) was added to the reaction mixture, and the mixture was left at rest for 5 minutes.

[2] = biological target: PDE 4 (phosphodiesterase IV); assay: PDE 4 inhibiting effect (3H-cAMP hydrolysis, PDE 4 active fraction from Balb/c mouse liver); assay type: biochemical; details: PDE 4 fraction from Balb/c mice liver, 0.064 μM cAMP, 2 hours at 25° C.; read-out: PDE4 IC50
Procedure: Methods for Evaluating the PDE 4 Inhibiting Effect
The PDE 4 (phosphodiesterase IV) inhibiting effect of the compounds of the present invention was performed by the following method, which was modified assay method described in Biochemical. […] That is, the livers obtained from three Balb/c mice (male, 12 weeks: obtainable from CLEA Japan, Inc.) were suspended with 30 mL of buffer solution B [20 mM of bis-tris, 5 mM of 2-mercaptoethanol, 2 mM of benzamidine, 2 mM of EDTA, 0.1 mM of 4-(2-aminoethyl)benzenesulfonyl hydrochloride, 50 mM of sodium acetate; pH 6.5], then homogenized by Polytron® homogenizer. The homogenate were centrifuged under 25,000×G for 10 minutes at 4° C. The supernatant was separated and thus obtained supernatant was further centrifuged under 100,000×G for 60 minutes at 4° C., and then filtrated with 0.2 μm filter to obtain the soluble fraction. • (2) The obtained soluble fraction was filled in equilibrium DEAE sepharose column (1×10 cm) with buffer solution B, and phosphodiesterase fractions were eluted by 120 mL of buffer solution B with linear gradient from 0.05 to 1M sodium acetate concentration. 5 mL each of 24 eluents were collected, and each eluents were examined for cyclic AMP metabolic activities of phosphodiesterase. […] After the reaction, suspension of Sephadex®-QAE in 10 mM of HEPES-Na (pH 7.0) was added to the reaction mixture, and the mixture was left at rest for 5 minutes.

Sequence of PDE 7 (phosphodiesterase VII) (Q13946 whole entry): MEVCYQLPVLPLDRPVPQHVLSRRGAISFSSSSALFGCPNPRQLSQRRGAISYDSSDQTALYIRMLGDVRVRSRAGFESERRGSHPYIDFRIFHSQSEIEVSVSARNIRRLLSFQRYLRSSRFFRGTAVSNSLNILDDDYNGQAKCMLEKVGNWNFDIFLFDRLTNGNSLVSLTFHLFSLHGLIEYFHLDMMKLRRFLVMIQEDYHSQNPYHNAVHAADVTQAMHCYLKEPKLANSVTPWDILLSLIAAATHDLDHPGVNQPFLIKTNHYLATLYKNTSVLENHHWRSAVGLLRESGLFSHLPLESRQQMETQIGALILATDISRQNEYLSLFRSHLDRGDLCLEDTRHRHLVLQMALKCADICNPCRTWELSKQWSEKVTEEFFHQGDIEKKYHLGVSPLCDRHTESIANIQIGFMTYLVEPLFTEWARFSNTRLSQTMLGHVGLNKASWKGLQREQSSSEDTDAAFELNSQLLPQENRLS

## Cc1nn(C2CCOCC2)c2sc(C(=O)N[C@H]3CC[C@H](N4CCC(O)CC4)CC3)cc12 [Example 425, N-[trans-4-(4-Hydroxy-1-piperidinyl)cyclohexyl]-3-methyl-1-tetrahydro-2H-pyran-4-yl-1H-thieno[2,3-c]pyrazole-5-carboxamide]
[1]
  IC50: 90 nM
[2]
  IC50: 13000 nM

## Cc1nn(C2CCOCC2)c2sc(C(=O)Nc3ccc(N4CCN(C)CC4)c(F)c3)cc12 [Example 197, N-[3-Fluoro-4-(4-methyl-piperazinyl)phenyl]-3-methyl-1-tetrahydro-2H-pyran-4-yl-1H-thieno[2,3-c]pyrazole-5-carboxamide]
[1]
  IC50: 79 nM
[2]
  IC50: 4400 nM

## Cc1nn(C2CCCCC2)c2sc(C(=O)Nc3ccc(C(=O)NC(C)(C)C)cc3)cc12 [Example 51, N-{4-[(tert-Butylamino)carbonyl]phenyl}-1-cyclohexyl-3-methyl-1H-thieno[2,3-c]pyrazole-5-carboxamide]
[1]
  IC50: 75 nM
[2]
  IC50: 9500 nM

## CCNC(=O)c1ccc(NC(=O)c2cc3c(C)nn(C4CCCCC4)c3s2)cc1 [Example 28, 1-Cyclohexyl-N-{4-[(ethylamino)carbonyl]phenyl}-3-methyl-1H-thieno[2,3-c]pyrazole-5-carboxamide]
[1]
  IC50: 50 nM
[2]
  IC50: 30000 nM

## Cc1nn(C2CCCCC2)c2sc(C(=O)Nc3ccc(CO)nc3)cc12 [Example 404, 1-Cyclohexyl-N-[6-(hydroxymethyl)-3-pyridinyl]-3-methyl-1H-thieno[2,3-c]pyrazole-5-carboxamide]
[1]
  IC50: 32 nM
[2]
  IC50: 3500 nM

## Cc1nn(C2CCCCC2)c2sc(C(=O)Nc3ccc(N)cc3)cc12 [Example 99, N-(4-Aminophenyl)-1-cyclohexyl-3-methyl-1H-thieno[2,3-c]pyrazole-5-carboxamide]
[1]
  IC50: 99 nM
[2]
  IC50: 5000 nM

## Cc1nn(C2CCCCC2)c2sc(C(=O)Nc3ccc(N4CCC(O)CC4)c(C#N)c3)cc12 [Example 373, N-[3-Cyano-4-(4-hydroxy-1-piperidinyl)phenyl]-cyclohexyl-3-methyl-1H-thieno[2,3-c]pyrazole-5-carboxamide]
[1]
  IC50: 4.5 nM
[2]
  IC50: 3400 nM

## Cc1nn(C2CCCCC2)c2sc(C(=O)NCCN3C(=O)CN(C)C3=O)cc12 [Example 277, 1-Cyclohexyl-3-methyl-N-[2-(3-methyl-2,5-dioxo-1-imidazolidinyl)-ethyl]-1H-thieno[2,3-c]pyrazole-5-carboxamide]
[1]
  IC50: 32 nM
[2]
  IC50: 7800 nM

## Cc1nn(C2CCCCC2)c2sc(C(=O)N[C@H]3CC[C@H](C(=O)N(C)C)CC3)cc12 [Example 208, 1-Cyclohexyl-N-{4-[(dimethylamino)carbonyl]cyclohexyl}-3-methyl-1H-thieno[2,3-c]pyrazole-5-carboxamide]
[1]
  IC50: 25 nM
[2]
  IC50: 3800 nM

## Cc1nn(C2CCOCC2)c2sc(C(=O)Nc3ccc(C(=O)N(C)C)cc3)cc12 [Example 255, N-{4-[(Dimethylamino)carbonyl]phenyl}-3-methyl-1 tetrahydro-2H-pyran-4-yl-1H-thieno[2,3-c]pyrazole-5-carboxamide]
[1]
  IC50: 89 nM
[2]
  IC50: 12000 nM

## CC(=O)Nc1ccc(NC(=O)c2cc3c(C)nn(C4CCCCC4)c3s2)cn1 [Example 47, N-[6-(Acetylamino)-3-pyridinyl]-1-cyclohexyl-3-methyl-1H-thieno[2,3-c]pyrazole-5-carboxamide]
[1]
  IC50: 32 nM
[2]
  IC50: 3500 nM

## Cc1nn(C2CCCCC2)c2sc(C(=O)N[C@H]3CC[C@H](N4CCN(C)CC4)CC3)cc12 [Example 166, 1-Cyclohexyl-3-methyl-N-[trans-4-(4-methyl-1-piperazinyl)-cyclohexyl]-1H-thieno[2,3-c]pyrazole-5-carboxamide]
[1]
  IC50: 16 nM
[2]
  IC50: 1300 nM

## CC(=O)N1CCc2cc(NC(=O)c3cc4c(C)nn(C5CCCCC5)c4s3)ccc21 [Example 11, N-(1-Acetyl-2,3-dihydro-1H-indo-5-yl)-1-cyclohexyl-3-methyl-1H-thieno[2,3-c]pyrazole-5-carboxamide]
[1]
  IC50: 19 nM
[2]
  IC50: 2000 nM

## Cc1nn(C2CCCCC2)c2sc(C(=O)Nc3ccc4c(c3)CCN4C(=O)C(C)C)cc12 [Example 23]
[1]
  IC50: 83 nM
[2]
  IC50: 4800 nM

## Cc1nn(C2CCOCC2)c2sc(C(=O)Nc3ccc(N4CCN(C)CC4)cc3)cc12 [Example 196, 3-Methyl-N-[4-(4-methyl-1-piperazinyl)phenyl]-1-tetrahydro-2H-pyran-4-yl-1H-thieno[2,3-c]pyrazole-5-carboxamide]
[1]
  IC50: 90 nM
[2]
  IC50: 7500 nM

## Cc1nn(C2CCCCC2)c2sc(C(=O)Nc3ccc4c(c3)CCN4C(=O)C(C)(C)C)cc12 [Example 25, 1-Cyclohexyl-N-[1-(2,2-dimethylpropanoyl)-2,3-dihydro-1H-indol-5-yl]-3-methyl-1H-thieno[2,3-c]pyrazole-5-carboxamide]
[1]
  IC50: 98 nM
[2]
  IC50: 6500 nM

## Cc1nn(C2CCCCC2)c2sc(C(=O)Nc3ccc(OCC(=O)N(C)C)cc3)cc12 [Example 77, 1-Cyclohexyl-N-{4-[2-(dimethylamino)-2-oxoethoxy]phenyl}-3-methyl-1H-thieno[2,3-c]pyrazole-5-carboxamide]
[1]
  IC50: 20 nM
[2]
  IC50: 2000 nM

## Cc1nn(C2CCCCC2)c2sc(C(=O)Nc3ccc(N4CCC(O)CC4)c(F)c3F)cc12 [Example 371, 1-Cyclohexyl-N-[2,3-difluoro-4-(4-hydroxy-1-piperidinyl)phenyl]-3-methyl-1H-thieno[2,3-c]pyrazole-5-carboxamide]
[1]
  IC50: 17 nM
[2]
  IC50: 3600 nM

## Cc1nn(C2CCCCC2)c2sc(C(=O)N[C@H]3CC[C@H](N4CCN(C)CC4=O)CC3)cc12 [Example 416, 1-Cyclohexyl-3-methyl-N-[trans-4-(4-methyl-2-oxo-1-piperazinyl)-cyclohexyl]-1H-thieno[2,3-c]pyrazole-5-carboxamide]
[1]
  IC50: 17 nM
[2]
  IC50: 1300 nM

## Cc1nn(C2CCOCC2)c2sc(C(=O)Nc3ccc(N4CCN(C)CC4=O)cc3)cc12 [Example 440, 3-Methyl-N-[4-(4-methyl-2-oxo-piperazinyl)phenyl]-1-tetrahydro-2H-pyran-4-yl-1H-thieno[2,3-c]pyrazole-5-carboxamide]
[1]
  IC50: 97 nM
[2]
  IC50: 28000 nM

## Cc1nn(C2CCOCC2)c2sc(C(=O)N[C@H]3CC[C@H](N4CCN(C)C(=O)C4)CC3)cc12 [Example 419, 3-Methyl-N-[trans-4-(4-methyl-3-oxo-1-piperazinyl)cyclohexyl]-1-tetrahydro-2H-pyran-4-yl-1H-thieno[2,3-c]pyrazole-5-carboxamide]
[1]
  IC50: 29 nM
[2]
  IC50: 5700 nM

## Cc1nn(C2CCCCC2)c2sc(C(=O)Nc3ccc(CN4C(=O)CN(C)C4=O)cc3)cc12 [Example 202, 1-Cyclohexyl-methyl-N-{4-[(3-methyl-2,5-dioxo-1-imidazolidinyl)-methyl]phenyl}-1H-thieno[2,3-c]pyrazole-5-carboxamide]
[1]
  IC50: 33 nM
[2]
  IC50: 2400 nM

## Cc1nn(C2CCCCC2)c2sc(C(=O)N[C@H]3CC[C@H](CN4C(=O)CNC4=O)CC3)cc12 [Example 247, 1-Cyclohexyl-N-{4-[(2,5-dioxo-1-imidazolidinyl)methyl]cyclohexyl}-3-methyl-1H-thieno[2,3-c]pyrazole-5-carboxamide]
[1]
  IC50: 6.5 nM
[2]
  IC50: 1400 nM

## Cc1nn(C2CCCCC2)c2sc(C(=O)N[C@H]3CC[C@H](N4CCC(O)CC4)CC3)cc12 [Example 176, 1-Cyclohexyl-N-[trans-4-(4-hydroxy-1-piperidinyl)cyclohexyl]-3-methyl-1H-thieno[2,3-c]pyrazole-5-carboxamide]
[1]
  IC50: 20 nM
[2]
  IC50: 1700 nM

## Cc1nn(C2CCCCC2)c2sc(C(=O)N[C@H]3CC[C@H](N4CCNC4=O)CC3)cc12 [Example 271, 1-Cyclohexyl-3-methyl-N-[trans-4-(2-oxo-1-imidazolidinyl)-cyclohexyl]-1H-thieno[2,3-c]pyrazole-5-carboxamide]
[1]
  IC50: 8.9 nM
[2]
  IC50: 2100 nM
